# What was measured:
# [1] = system: Aphanomyces cochlioides (MAFF No. 305548); test: Antimicrobial test, mycelial growth on PSA medium (Test Example 4); type: cell-based; conditions: 20° C., 3 day incubation
# Description: (§1) Each sample fungal flora pre-cultured in PSA medium was cut from the medium plate with a cork borer, and placed on a center of PSA medium containing each test compound at a predetermined concentration, dispensed in a Petri dish with an inner diameter of 8 cm. Immediately thereafter, the dish was allowed to stand in a thermostatic room set at 20° C. […] In cases where an observed value is lower than the theoretically expected one derived from the Colby's formula, the phytopathogenic microorganism-disinfecting composition of the present invention is synergistically effective in combating and/or eliminating phytopathogenic microorganisms.
# [2] = system: Pythium debaryanum (MAFF No. 305462); test: as above; type: cell-based; conditions: 20° C., 1 day incubation
# Description: as §1
# Pythium aphanidermatum = test: Antimicrobial test, mycelial growth on PSA medium (Test Example 1); type: cell-based; conditions: 20° C., 2 day incubation
# Description: (§2) Each sample fungal flora pre-cultured in PSA medium was cut from the medium plate with a cork borer, and placed on a center of PSA medium containing each test compound at a predetermined concentration, dispensed in a Petri dish with an inner diameter of 8 cm. Immediately thereafter, the dish was allowed to stand in a thermostatic room set at 20° C. The diameters of the flora zones were measured after 2 day incubation. A mycelial growth rate is calculated according to the following equation. […] A theoretically expected value can be calculated according to the following formula derived from the so-called Colby's formula. In cases where an observed value is lower than the theoretically expected one obtained from the formula derived from the Colby's formula, the phytopathogenic microorganism-disinfecting composition of the present invention is synergistically effective in combating and/or eliminating phytopathogenic microorganisms.
# Pythium spinosum = test: as above; type: cell-based; conditions: 20° C., 2 day incubation
# Description: as §2
# [3] = system: Pythium Damping-off Disease of Rice Seedlings; test: Test for prophylactic efficacy against Pythium damping-off disease of rice seedlings (1) (Test Example 2); type: in vivo; conditions: soil irrigation, 29 days after sowing
# Description: (§3) Polyvinyl chloride cups (each 10 cm square) were filled with pathogen-inoculated soil as bed soil, and seeded with rice seeds. Next, the polyvinyl chloride cup was irrigated using a pipette with a test solution (27.8 ml) prepared by adjusting each active ingredient compound to a predetermined concentration, and then covered with soil. After kept for 3 days in a thermostatic room set at 32° C., the plants were grown in a greenhouse. Ten days after sowing, the plants were exposed to a cold temperature during night. Twenty nine days after sowing, the disease incidence area was examined. In these cases, each theoretically expected value obtained from the aforementioned formula derived from the Colby's formula is shown in parentheses in Table 3.
# [4] = system: Pythium Damping-off Disease of Rice Seedlings; test: Test for prophylactic efficacy against Pythium damping-off disease of rice seedlings (2) (Test Example 3); type: in vivo; conditions: soil irrigation, 35 days after sowing
# Description: as §3, with “AS resin cases” for “Polyvinyl chloride cups”, “15×11 cm)” for “10 cm square)”, “AS resin case” for “polyvinyl chloride cup”, “(50” for “(27.8”, “night for 3 days. Thirty five” for “night. Twenty nine”, “4.” for “3.”
smiles,measurement,setting,value
"Cc1cc(O)no1 [Hymexazol, 5-methylisoxazol-3-ol]",Mycelial Growth Rate (%),[1]; Hymexazol 25 ppm alone,53%
same,Mycelial Growth Rate (%),[1]; Hymexazol 50 ppm alone,43%
same,Mycelial Growth Rate (%),[1]; Hymexazol 100 ppm alone,43%
same,Mycelial Growth Rate (%),[2]; Hymexazol 25 ppm alone,89%
same,Mycelial Growth Rate (%),[2]; Hymexazol 50 ppm alone,84%
same,Mycelial Growth Rate (%),[2]; Hymexazol 100 ppm alone,67%
same,Mycelial Growth Rate (%),Pythium aphanidermatum; Hymexazol 25 ppm alone,22.7%
same,Mycelial Growth Rate (%),Pythium aphanidermatum; Hymexazol 50 ppm alone,16.4%
same,Mycelial Growth Rate (%),Pythium aphanidermatum; Hymexazol 100 ppm alone,6.3%
same,Mycelial Growth Rate (%),Pythium spinosum; Hymexazol 25 ppm alone,27.8%
same,Mycelial Growth Rate (%),Pythium spinosum; Hymexazol 50 ppm alone,21.6%
same,Mycelial Growth Rate (%),Pythium spinosum; Hymexazol 100 ppm alone,23.7%
same,Damping-off Incidence Area Rate (%),"[3]; Hymexazol 1,040 g/ha alone",50%
same,Damping-off Incidence Area Rate (%),"[4]; Hymexazol 1,040 g/ha alone (Compound No. 1 0 ppm)",90%
"Cc1ccc(-c2c(Cl)nc(C#N)n2S(=O)(=O)N(C)C)cc1 [Compound No. 1, 4-chloro-2-cyano-1-dimethylsulfamoyl-5-(4-methyl-phenyl)imidazole]",Mycelial Growth Rate (%),[1]; Compound No. 1 25 ppm alone,52%
same,Mycelial Growth Rate (%),[1]; Compound No. 1 50 ppm alone,29%
same,Mycelial Growth Rate (%),[1]; Compound No. 1 100 ppm alone,11%
same,Mycelial Growth Rate (%),[2]; Compound No. 1 25 ppm alone,59%
same,Mycelial Growth Rate (%),[2]; Compound No. 1 50 ppm alone,49%
same,Mycelial Growth Rate (%),[2]; Compound No. 1 100 ppm alone,44%
same,Mycelial Growth Rate (%),Pythium aphanidermatum; Compound No. 1 25 ppm alone,21.1%
same,Mycelial Growth Rate (%),Pythium aphanidermatum; Compound No. 1 50 ppm alone,6.3%
same,Mycelial Growth Rate (%),Pythium aphanidermatum; Compound No. 1 100 ppm alone,9.4%
same,Mycelial Growth Rate (%),Pythium spinosum; Compound No. 1 25 ppm alone,14.4%
same,Mycelial Growth Rate (%),Pythium spinosum; Compound No. 1 50 ppm alone,9.3%
same,Mycelial Growth Rate (%),Pythium spinosum; Compound No. 1 100 ppm alone,2.1%
same,Damping-off Incidence Area Rate (%),[3]; Compound No. 1 278 g/ha alone,67%
same,Damping-off Incidence Area Rate (%),[4]; Compound No. 1 139 g/ha alone,50%

# Reference: patent US20040191289A1, “Compositions for controlling plant pathogenic bacterium and method of controlling plant pathogenic bacterium” (priority 2001, published 2004)
